Results taken from publication PMC7586797, “Phase 1 Study to Evaluate the Effect of the Investigational Anticancer Agent Sapanisertib on the QTc Interval in Patients With Advanced Solid Tumors” (Clinical Pharmacology in Drug Development, 2020).
pIC50: −log10 of the molar value. Several values for one entry are separate records, joined by “and”; a condition that tells them apart may be missing. Identical values can stand only once. Like-named read-outs stand apart in the source and are kept apart here.

How the values were obtained:
[1] = test system: human ether‐à‐go‐go channel; experiment: In vitro hERG channel inhibition; format: biochemical; conditions: free Cmax 0.3 µM at 40 mg
CYP and UGT enzymes = test system: CYP and UGT enzymes; parameters: method as in Takeda, data on file; conditions: in vitro reaction phenotyping; ref Takeda, data on file; cited from earlier work
[2] = test system: breast cancer‐ resistance protein; parameters: method as in Takeda data on file; conditions: in vitro; ref Takeda data on file; cited from earlier work
[3] = cited from earlier work; for Geometric Mean Cmax: fasted, immediate release capsules, advanced solid tumors, ref data on file 14
[4] = parameters: method as in Takeda, data on file; conditions: human hepatocytes; ref Takeda, data on file; cited from earlier work
monkey = test system: monkey; parameters: method as in data on file; conditions: ref data on file, cited from earlier work
[5] = Plasma pharmacokinetics after single 40 mg oral dose (LC-MS/MS, noncompartmental); format: in vivo, human; conditions: 40 mg single oral dose; for AUC(0-inf) / Cmax / Tmax / half-life: human, po, 40 mg
Method: (§1) On cycle 1 day 1, triplicate ECGs and plasma samples for PK were collected from patients ≤15 minutes prior to dosing and at 15 minutes; 30 minutes; and 1‐, 1.5‐, 2‐, 2.5‐, 3‐, 4‐, 6‐, 8‐, and 10‐hour time points after receiving a single oral dose of 40‐mg sapanisertib. The Holter recorders and ECG leads were removed from patients after collection of the 10‐hour time point ECG on day 1, following which patients were furloughed from site. Additional collections of ECGs and plasma samples for PK were conducted at 24 (cycle 1 day 2) and 48 hours (cycle 1 day 3) after dosing. After the first week, that is, cycle 1 day 8, patients had the option to continue to receive treatment with sapanisertib at a dose of 30 mg once weekly in continuous 28‐day cycles until disease progression, unacceptable toxicity, withdrawal of consent, or completion of the 12‐month maximum study duration.
Plasma samples were analyzed for sapanisertib using a validated liquid chromatography with tandem mass spectrometry method with deuterated sapanisertib used as the internal standard. Multiple reactant monitoring was performed using a positive electrospray method for the mass transitions (m/z) of 310.0 to 268.1 for sapanisertib and 317.0 to 269.1 for deuterated sapanisertib. A Shimadzu high‐pressure liquid chromatography system and Sciex API 4000 tandem mass spectrometry system were used with an Agilent Eclipse plus C18, 50 × 4.6 mm, 3.50‐µm column. For extraction, 50 µL of diluent (0.1% formic acid in acetonitrile/water, 50:50, v/v) and 20 µL of internal standard solution (0.5 µg/mL in diluent) were added to 50 µL of ethylenediaminetetraacetic acid plasma followed by vortex mixing. Plasma proteins were precipitated by adding 500 µL of 0.2% formic acid in acetonitrile followed by vortex mixing for 2 minutes and centrifugation for 5 minutes. A 40‐µL aliquot of the supernatant was transferred to a high‐pressure liquid chromatography vial containing 400 µL of reconstitution solution (10 mM ammonium formate and 10 mM citric acid in acetonitrile/water, 20:80, v/v). Injection volume was 10 µL. A gradient mobile phase (from 20% to 98%) was used, composed of mobile phase A: 0.1% formic/4 mM ammonium formate in water and mobile phase B: 0.1% formic acid and 4 mM ammonium formate in acetonitrile/water 98:2, v/v). The sapanisertib retention time was 1.7 minutes. The dynamic range of the assay was 1 to 1000 ng/mL. Assay accuracy expressed as %bias for the quality control samples ranged from –4.0% to –2.7% and assay precision expressed as percentage coefficient of variation (%CV) for quality control samples, ranged from 3.0% to 9.5% in plasma.
(§2) PK parameters were calculated by noncompartmental methods using WinNonLin Professional version 6.1 (Certara, Princeton, New Jersey). The PK analysis population was defined as all patients who received at least 1 dose of sapanisertib and had sufficient concentration‐time data to calculate ≥1 PK parameters. The safety population included all patients who received ≥1 dose of sapanisertib, according to the National Cancer Institute Common Terminology Criteria for Adverse Events, version 4.03.

[6] = parameters: method as in data on file; conditions: in vitro; ref data on file; cited from earlier work
[7] = test system: patients with advanced solid tumors; experiment: Safety: adverse events (NCI CTCAE v4.03); format: in vivo, human
Method: as §1, §2

[8] = test system: patients with advanced solid tumors; conditions: in vivo
Description: The relationships between concentration of sapanisertib and QTc and RR intervals were quantitatively analyzed in the PK/QTc analysis population using PK and ECG data from all patients. The data were first explored by graphical analysis, including a visual check for evidence of hysteresis. Mixed‐effects models were subsequently developed to describe the direct effect of sapanisertib on change from time‐matched baseline in RR, QTcI, and QTcF.
Standard diagnostic and goodness‐of‐fit plots were used for model evaluation and adequacy, plausibility, and precision of parameter estimates. A visual predictive check for the final model was generated to evaluate whether the model provided an accurate description of the data. The estimated parameters were reported with the standard error of the estimates as a measure of uncertainty, and nonparametric bootstrap resampling was used to construct 95%CI for the population parameters in each model. All model development was conducted with a qualified installation of the nonlinear mixed‐effects modeling software, version 7.3 (ICON Development Solutions, Hanover, Maryland). All data analyses were conducted using a qualified installation of the statistical software R.
A linear mixed‐effects model was used to characterize the direct effect of sapanisertib plasma concentration on ΔQTcI. […] The linear mixed‐effects model of sapanisertib plasma concentration versus ΔQTcI was subsequently used to predict the effect of sapanisertib on QTcI at the expected Cmax values for 4‐, 30‐, and 40‐mg sapanisertib doses. […] Model‐based simulations from the fitted model for ΔQTcI versus sapanisertib plasma concentration were used to generate CIs across the range of observed concentrations and to estimate the probability of patient ΔQTcI values exceeding 30‐ and 60‐millisecond thresholds at Cmax values corresponding to the 4‐, 30‐, and 40‐mg doses (Table 4).

[9] = test system: human ether‐à‐go‐go channel; conditions: in vitro; cited from earlier work
CYP enzymes = conditions: in vitro, clinically relevant concentrations; cited from earlier work
[10] = test system: organic cation transporter 2; parameters: method as in Takeda data on file; conditions: in vitro; ref Takeda data on file; cited from earlier work

CC(C)n1nc(-c2ccc3oc(N)nc3c2)c2c(N)ncnc21 [sapanisertib]
hERG IC50 as multiple of anticipated free Cmax [1]: ~583 times
CYP enzymes participating in oxidative metabolism (CYP and UGT enzymes): CYP1A2, 3A4, and 2C19
pIC50 [2]: 4.28
Geometric Mean Cmax ([3]; 4 mg once daily): 36.9 ng/mL ^a
Geometric Mean Cmax ([3]; 30 mg once weekly): 235 ng/mL ^b
Anticipated free maximum plasma concentration (Cmax) ([3]; 40 mg, cancer patients): 300 nM
Cmax ([3]; 40 mg, cancer patients, read-out: Total Cmax): 960 nM
Dose linearity of pharmacokinetics ([3]; 2- to 40-mg dose range): dose‐linear pharmacokinetics
Accumulation ratio ([3]; once-daily administration): ~1
Accumulation ([3]; once-weekly administration): does not accumulate
Share of hepatic metabolism mediated by cytochrome P450 (CYP) isozymes [4]: ~60%
Share of hepatic metabolism mediated by other non-CYP enzymes [4]: ~20%
Share of hepatic metabolism mediated by uridine 5'-diphospho-glucuronosyltransferases [4]: ~20%
Estimated free Cmax (monkey; 0.5 mg/kg): 230 nM
Electrocardiographic changes (monkey; single- or multiple-dose, up to 0.5 mg/kg): no remarkable electrocardiographic changes
CL (apparent clearance), Geometric mean (%CV) ([5]; empty stomach): 16.1 L/h and 16.1 (46.3) L/h
CL (apparent clearance), Mean (SD) ([5]; empty stomach): 18.3 (8.5) L/h
CL (apparent clearance), Median (range) ([5]; empty stomach): 18.0 (3.1–41.8) L/h
AUC(0-inf) ([5]; empty stomach, read-out: AUC∞, Geometric mean (%CV)): 2480 ng·h/mL
AUC(0-inf) ([5]; empty stomach, read-out: AUC∞, Mean (SD)): 2990 ng·h/mL
AUC(0-inf) ([5]; empty stomach, read-out: AUC∞, Median (range)): 2220 ng·h/mL
Cmax ([5]; empty stomach, read-out: Cmax, Geometric mean (%CV)): 297 ng/mL
Cmax ([5]; empty stomach, read-out: Cmax, Mean (SD)): 337 ng/mL
Cmax ([5]; empty stomach, read-out: Cmax, Median (range)): 317 ng/mL
Tmax ([5]; empty stomach, read-out: Tmax, Geometric mean (%CV)): 1.73 h
Tmax ([5]; empty stomach, read-out: Tmax, Mean (SD)): 2.51 h
Tmax ([5]; empty stomach, read-out: Tmax, Median (range)): 1.52 h
half-life ([5]; no unit in table (hours), read-out: T1/2 (terminal disposition half-life), Geometric mean (%CV) (converted)): 9.06 h
half-life ([5]; no unit in table (hours), read-out: T1/2 (terminal disposition half-life), Mean (SD) (converted)): 9.48 h
half-life ([5]; no unit in table (hours), read-out: T1/2 (terminal disposition half-life), Median (range) (converted)): 9.07 h
half-life ([5]; standard deviation 2.9 hours, read-out: Mean plasma half-life (converted)): 9.5 h
Bound to human plasma proteins [6]: 70.5%
Patients who died during the study ([7]; N = 44, neither death considered related to study drug): Two
AE of special interest: asthenic conditions ([7]; human, in vivo): 61%
AE of special interest: hyperglycemia ([7]; human, in vivo): 18%
AE of special interest: mucosal inflammation ([7]; human, in vivo): 25%
AE of special interest: rash ([7]; human, in vivo): 20%
AE of special interest: renal insufficiency ([7]; human, in vivo): 5%
Dehydration, grade ≥3 ([7]; human, in vivo): 5%
Diarrhea, grade ≥3 ([7]; human, in vivo): 5%
Fatigue, any grade ([7]; human, in vivo): 61%
Fatigue, grade ≥3 ([7]; human, in vivo): 16%
Hyperglycemia, grade ≥3 ([7]; human, in vivo): 5%
Nausea, any grade ([7]; human, in vivo): 80%
Patients who experienced adverse events ([7]; human, in vivo): 98%
Patients with grade ≥3 AEs ([7]; human, in vivo): 59%
Stomatitis, grade ≥3 ([7]; human, in vivo): 5%
Vomiting, any grade ([7]; human, in vivo): 57%
Patients who discontinued study due to AEs ([7]; in vivo): Four
Estimated probability that ΔQTcF would exceed 30 milliseconds or 60 milliseconds ([8]; human): < 0.0001
Association of ΔQTcF with plasma concentration [8]: weakly negative association
Association of ΔQTcI with plasma concentration [8]: weakly negative association
Association of ΔRR with plasma concentration [8]: weakly positive association
pIC50 [9]: 3.76
Inhibition or induction of CYP enzymes (CYP enzymes): did not inhibit or induce CYP enzymes
pIC50 [10]: 5.72
